According to US7022701B2, “Indolylalkylamine derivatives as 5-hydroxytryptamine-6 ligands” (Wyeth, priority 2001, dated 2006):
Counter-ions that a name gives are not always drawn.

biological target: T1, human cloned 5-HT6 receptors (Homo sapiens, UniProt P50406); test: 5-HT6 binding affinity, [3H]-LSD displacement on membranes of Hela cells expressing the receptor; conditions: not given
T1 construct: expressed in transfected cells; host or cells: Hela cells
Experimental: The affinity of test compounds for the serotonin 5-HT6 receptor is evaluated in the following manner. Cultured Hela cells expressing human cloned 5-HT6 receptors are harvested and centrifuged at low speed (1,000×g) for 10.0 min to remove the culture media. The harvested cells are suspended in half volume of fresh physiological phosphate buffered saline solution and recentrifuged at the same speed. This operation is repeated. The collected cells are then homogenized in ten volumes of 50 mM Tris.HCl (pH 7.4) and 0.5 mM EDTA. The homogenate is centrifuged at 40,000×g for 30.0 min and the precipitate is collected. The obtained pellet is resuspended in 10 volumes of Tris.HCl buffer and recentrifuged at the same speed. The final pellet is suspended in a small volume of Tris.HCl buffer and the tissue protein content is determined in aliquots of 10–25 μl volumes. […] The volume of the suspended cell membranes is adjusted to give a tissue protein concentration of 1.0 mg/ml of suspension. The prepared membrane suspension (10 times concentrated) is aliquoted in 1.0 ml volumes and stored at −70° C. until used in subsequent binding experiments.
Binding experiments are performed in a 96 well microtiter plate format, in a total volume of 200 μl. […] The test compounds are added in 20.0 μl volume.
The bound complex caught on the filter disk is allowed to air dry and the radioactivity is measured in a Packard TopCount® equipped with six photomultiplier detectors, after the addition of 40.0 μl Microscint®-20 scintillant to each shallow well. The unifilter plate is heat-sealed and counted in a PackardTopCount® with a tritium efficiency of 31.0%.
Binding in the presence of varying concentrations of test compound is expressed as a percentage of specific binding in the absence of test compound. The results are plotted as log % bound versus log concentration of test compound.

T1 sequence (P50406 whole entry): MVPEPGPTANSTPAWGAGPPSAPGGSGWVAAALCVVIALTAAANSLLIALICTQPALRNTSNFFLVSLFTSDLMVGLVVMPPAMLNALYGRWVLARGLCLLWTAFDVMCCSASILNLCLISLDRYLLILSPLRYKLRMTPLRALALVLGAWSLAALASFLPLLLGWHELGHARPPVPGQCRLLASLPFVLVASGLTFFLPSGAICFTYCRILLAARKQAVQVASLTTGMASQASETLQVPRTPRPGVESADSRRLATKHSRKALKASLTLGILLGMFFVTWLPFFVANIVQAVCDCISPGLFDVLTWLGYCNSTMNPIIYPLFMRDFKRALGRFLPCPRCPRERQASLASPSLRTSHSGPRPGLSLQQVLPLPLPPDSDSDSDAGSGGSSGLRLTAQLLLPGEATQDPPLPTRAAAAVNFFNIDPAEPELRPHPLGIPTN

Compound | Ki
CNCCc1cn(S(=O)(=O)c2c(Cl)nc3sccn23)c2ccccc12 [Example 3, (2-[1-(6–Chloroimidazo[2,1-b]thiazole-5-sulfonyl)-1H-indol-3-yl]ethyl}methyl amine] | 19 nM
CN(C)CCc1cn(S(=O)(=O)c2c(Cl)nc3sccn23)c2ccccc12 [Example 4, {2-[1-(6-chloro-imidazo[2,1-b][1,3]thiazole-5-sulfonyl)-1H-indol-3-yl]ethyl}dimethylamine] | 1 nM
O=S(=O)(c1c(Cl)nc2sccn12)n1cc(CCNCc2ccccc2)c2ccccc21 [Example 5, benzyl-{2-[1-(6-chloro-imidazo[2,1-b][1,3]thiazole-5-sulfonyl)-1H-indol-3-yl]ethyl}amine] | 4 nM
O=S(=O)(c1c(Cl)nc2sccn12)n1cc(CCN2CCCC2)c2ccccc21 [Example 6, 1-(6-chloro-imidazo[2,1-b][1,3]thiazole-5-sulfonyl)-3-(2-pyrrolidin-1-ylethyl)-1H-indole] | 5 nM
CN1CCN(CCc2cn(S(=O)(=O)c3c(Cl)nc4sccn34)c3ccccc23)CC1 [Example 7, 1-(6-chloro-imidazo[2,1-b][1,3]thiazole-5-sulfonyl)-3-[2-(4-methylpiperazin-1-yl)ethyl]-1H-indole] | 7 nM
CN(CCc1cn(S(=O)(=O)c2c(Cl)nc3sccn23)c2ccccc12)Cc1ccccc1 [Example 9, benzyl-{2-[1-(6-chloro-imidazo[2,1-b][1,3]thiazole-5-sulfonyl)-1H-indol-3-yl]ethyl}methylamine] | 5 nM
O=S(=O)(c1c(Cl)nc2sccn12)n1cc(CCNCCc2ccccc2)c2ccccc21 [Example 10, {2-[1-(6-chloro-imidazo[2,1-b][1,3]thiazole-5-sulfonyl)-1H-indol-3-yl]ethyl}phenethylamine] | 41 nM
O=C(O)C1CCCN1CCc1cn(S(=O)(=O)c2c(Cl)nc3sccn23)c2ccccc12 (stereo not shown) [Example 11, 1-{2-[1-(6-chloro-imidazo[2,1-b][1,3]thiazole-5-sulfonyl)-1H-indol-3-yl]ethyl}pyrrolidine-2-carboxylic acid] | 30 nM
CC(N)Cc1cn(S(=O)(=O)c2c(Cl)nc3sccn23)c2ccccc12 (stereo not shown) [Example 12, 2[1-(6–Chloroimidazo[2,1-b]thiazole-5-sulfonyl)-1H-indol-3-yl]-1-methylethylamine Hydrochloride] | 2 nM
C[C@H](N)Cc1cn(S(=O)(=O)c2c(Cl)nc3sccn23)c2ccccc12 [Example 15, (S)-2-[1-(6–Chloroimidazo[2,1-b]thiazole-5-sulfonyl)-1H-indol-3-yl]-1-methylethylamine Hydrochloride] | 6 nM
C[C@@H](N)Cc1cn(S(=O)(=O)c2c(Cl)nc3sccn23)c2ccccc12 [Example 16, ®-2-[1-(6 Chloroimidazo[2,1-b]thiazole-5-sulfonyl)-1H-indol-3-yl]-1-methylethylamine Hydrochloride] | 2 nM
NCCc1cn(S(=O)(=O)c2c(Cl)nc3ccccn23)c2ccccc12 [Example 17, 2-[1-(2-chloro-imidazo[1,2-a]pyridine-3-sulfonyl)-1H-indol-3-yl]ethylamine] | 14 nM
NCCc1cn(S(=O)(=O)c2c(Cl)nc3sc(Cl)cn23)c2ccccc12 [Example 18, 2-[1-(2,6-dichloro-imidazo[2,1-b][1,3]thiazole-5-sulfonyl)-1H-indol-3-yl]ethylamine] | 8 nM
CNCCc1cn(S(=O)(=O)c2c(Cl)nc3ccccn23)c2ccccc12 [Example 20, {2-[1-(2-chloro-imidazo[1,2-a]pyridine-3-sulfonyl)-1H-indol-3-yl]ethyl}methylamine] | 11 nM
CNCCc1cn(S(=O)(=O)c2c(Cl)nc3sc(Cl)cn23)c2ccccc12 [Example 21, {2-[1-(2,6-dichloro-imidazo[2,1-b][1,3]thiazole-5-sulfonyl)-1H-indol-3-yl]ethyl)methylamine] | 12 nM
CN(C)CCc1cn(S(=O)(=O)c2c(Cl)nc3sc(Cl)cn23)c2ccccc12 [Example 24, {2-[1-(2,6-dichloro-imidazo[2,1-b][1,3]thiazole-5-sulfonyl)-1H-indol-3-yl]ethyl}dimethylamine] | 10 nM
COc1ccc2c(c1)c(CCN)cn2S(=O)(=O)c1c(Cl)nc2sccn12 [Example 30, 2-[1-(6-chloro-imidazo[2,1-b][1,3]thiazole-5-sulfonyl)-5-methoxy-1H-indol-3-yl]ethylamine] | 11 nM
COc1ccc2c(CCN)cn(S(=O)(=O)c3c(Cl)nc4sccn34)c2c1 [Example 31, 2-[1-(6-chloro-imidazo[2,1-b][1,3]thiazole-5-sulfonyl)-6-methoxy-1H-indol-3-yl]ethylamine] | 13 nM
NCCc1cn(S(=O)(=O)c2c(Cl)nc3sccn23)c2ccc(Br)cc12 [Example 32, 2-[5-bromo-1-(6-chloro-imidazo[2,1-b][1,3]thiazole-5-sulfonyl)-1H-indol-3-yl]ethylamine] | 74 nM
NCCc1cn(S(=O)(=O)c2c(Cl)nc3sccn23)c2ccc(OCc3ccccc3)cc12 [Example 33, 2-[5-benzyloxy-1-(6-chloro-imidazo[2,1-b][1,3]thiazole-5-sulfonyl)-1H-indol-3-yl]ethylamine] | 169 nM
Cc1ccc2c(c1)c(CCN)cn2S(=O)(=O)c1c(Cl)nc2sccn12 [Example 34, 2-[1-(6-chloro-imidazo[2,1-b][1,3]thiazole-5-sulfonyl)-5-methyl-1H-indol-3-yl]ethylamine] | 31 nM
Cc1ccc2c(CCN)cn(S(=O)(=O)c3c(Cl)nc4sccn34)c2c1 [Example 35, 2-[1-(6-chloro-imidazo[2,1-b][1,3]thiazole-5-sulfonyl)-6-methyl-1H-indol-3-yl]ethylamine] | 6 nM
Cc1cccc2c(CCN)cn(S(=O)(=O)c3c(Cl)nc4sccn34)c12 [Example 36, 2-[1-(6-chloro-imidazo[2,1-b][1,3]thiazole-5-sulfonyl)-7-methyl-1H-indol-3-yl]ethylamine] | 348 nM
NCCc1cn(S(=O)(=O)c2c(Cl)nc3sccn23)c2ccc(O)cc12 [Example 37, 3-(2-amino-ethyl)-1-(6-chloro-imidazo[2,1-b][1,3]thiazole-5-sulfonyl)-1H-indol-5-ol] | 4 nM
NCCc1cn(S(=O)(=O)c2c(Cl)nc3sccn23)c2ccc(F)cc12 [Example 38, 2-[1-(6-chloro-imidazo[2,1-b][1,3]thiazole-5-sulfonyl)-5-fluoro-1H-indol-3-yl]ethylamine] | 9 nM
NCCc1cn(S(=O)(=O)c2c(Cl)nc3sccn23)c2cc(F)ccc12 [Example 39, 2-[1-(6-chloro-imidazo[2,1-b][1,3]thiazole-5-sulfonyl)-6-fluoro-1H-indol-3-yl]ethylamine] | 5 nM
NCCc1cn(S(=O)(=O)c2cnc3sccn23)c2ccccc12 [Example 40, 2-{1-[(imidazo[2,1-b][1,3]thiazol-5-yl)sulfonyl]-1H-indol-3-yl}ethylamine] | 1.2 nM

same assay, conditions: [3H]-LSD 3.0 nM, membranes of Hela cells expressing human cloned 5-HT6 receptors, 120 min at room temperature; read-out: 5-HT6 Binding Ki

Compound | Ki
CN(C)CCc1cn(S(=O)(=O)c2c(Cl)nc3ccccn23)c2ccccc12 [Example 23, {2-[1-(2-chloro-imidazo[1,2-a]pyridine-3-sulfonyl)-1H-indol-3-yl]ethyl}dimethyamine] | 10 nM
NCCCc1cn(S(=O)(=O)c2c(Cl)nc3sccn23)c2ccc(F)cc12 [Example 45, 3-{1-[(6–Chloroimidazo[2,1-b][1,3]thiazol-5-yl)sulfonyl]-5-fluoro-1H-indol-3-yl}propan-1-amine] | 48 nM
{2-[1-(2-chloro-benzo[d]imidazo[2,1-b][1,3]thiazole-3-sulfonyl)-1H-indol-3-yl]ethyl}dimethylamine [Example 25] | 37 nM
{2-[1-(2-chloro-benzo[d]imidazo[2,1-b][1,3]thiazole-3-sulfonyl)-1H-indol-3-yl]ethyl}methylamine [Example 22] | 51 nM
